Measured values from patent US12398093B2, “Compounds and methods for treating inflammatory disorders” (Board of Supervisors of Louisiana State University and …, priority 2019, dated 2025).
“And” between values parts separate entries of the source, which are not always exact repeats. Equal entries are not always repeated. Where two headings read alike, the source gives them in different places. Marks after values point to notes of the source that are not given here.

Legend:
[1] = log D at physiological pH; assay type: physicochemical; details: pH 7.4
Text: This differential in the physico-chemical properties could be one of the drivers in the observed increased plasma protein binding capability of 2Ci-Bu in comparison to R-DOI and the moderate changes in the Caco-2 A-B/B-A permeability profiles.

[2] = In vitro metabolism, intrinsic clearance in human liver microsomes; assay type: in vitro ADME; details: for Clint: human liver microsomes intrinsic clearance; for Clint / half-life / % Compound Remaining, 1st / % Compound Remaining, 2nd / % Compound Remaining, Mean: 1.0×10^−7 M; for microsomal CLint / half-life: human, human liver microsomes
C57BL/6J mice = test: Head twitch response (HTR), magnetometer detection; assay type: in vivo; details: for HTR counts, mean: 30-minute session; for ED50: Mus musculus
Description: The head twitch response (HTR) can be used as a behavioral proxy in rodents for human hallucinogenic effects, because it can reliably distinguish hallucinogenic and non-hallucinogenic 5-HT2A receptor agonists. […] HTR studies were conducted with (R)-DOI and 2C-iBu in C57BL/6J mice.
Male C57BL/6J mice (6-8 weeks old) obtained from Jackson Laboratories (Bar Harbor, ME, USA) were housed at up to four per cage in a climate-controlled room on a reverse-light cycle (lights on at 1900 h, off at 0700 h) and were provided with ad libitum access to food and water, except during behavioral testing. Testing was conducted between 1000 and 1800 h.
Drug doses are based on the equivalent freebase weight. Test substances were dissolved in sterile isotonic saline and injected subcutaneously (SC) at a volume of 5 mL/kg.
The HTR was assessed using a head-mounted magnet and a magnetometer detection coil, according to known methods. Briefly, mice were anesthetized, a small incision was made in the scalp, and a small neodymium magnet was attached to the dorsal surface of the cranium using dental cement. Following a two-week recovery period, HTR experiments were carried out in a well-lit room with at least seven days between sessions to avoid carryover effects. Test compounds were injected immediately prior to testing. Mice were injected with drug or vehicle and then HTR activity was recorded in a glass cylinder surrounded by a magnetometer coil. Coil voltage was low-pass filtered (2-10 kHz cutoff frequency), amplified, and digitized (20 kHz sampling rate) using a Powerlab/8SP with LabChart v 7.3.2 (ADInstruments, Colorado Springs, CO, USA), then filtered off-line (40-200 Hz band-pass).
Experiment 1. Five groups of mice (n=6/group, 30 total) were treated with vehicle or R-DOI (0.1, 0.3, 1, or 3 mg/kg) and HTR activity was assessed for 30 minutes. Experiment 2. Five groups of mice (n=6-7/group, 34 total) were treated with vehicle or 2C-iBu (0.3, 1, 3, or 10 mg/kg) and HTR activity was assessed for 30 minutes. Experiment 3. Two groups of mice (n=7/group, 14 total) were treated with R-DOI (1 mg/kg) or 2C-iBu (3 mg/kg) and HTR activity was assessed for 210 minutes.
For Experiment 1 and Experiment 2, the entire thirty-minute recordings were examined for head twitches, head twitch counts were analyzed using one-way analyses of variance (ANOVA). In addition, HTR counts were analyzed in two-minute time blocks using one-way ANOVAs, with time as a repeated measure. Post hoc pairwise comparisons between selected groups were performed using Tukey's studentized range method.
A Gaussian distribution was used to fit biphasic HTR dose-response data:
[formula] [formula] In these equations, E is the drug effect, Baseline is the response in the control group, Range is the distance from Baseline to the top of the curve, [A] is the dose of the drug, and midA is the logarithm of the dose corresponding to the top of the curve. To determine whether potency differences exist between individual compounds, ED50 values were compared using an extra-sum-of-squares F-test.
For Experiment 3, HTR counts were examined in 5-min time blocks. To determine the half-life of drug responses, the descending phase of the data was fitted with a one-phase exponential decay function. The responses produced by R-(−)-DOI (1 mg/kg) or ELEU02 were analyzed using one-way ANOVA, with time as a repeated measure. Post hoc pairwise comparisons between groups were performed using Sidak's multiple comparisons test.

[3] = system: adult male Brown Norway rats; test: Ovalbumin allergic asthma model, whole body plethysmography (ΔPenh) after methacholine challenge; assay type: in vivo; details: for Prevention of AHR (ΔPenh/PenH) in response to OVA: rats
Text: A modification of the ovalbumin model of allergic asthma and whole body plethysmography protocol as described in Nau et al. (Am. J. Physiol. Lung Cell Mol. Physiol. 2015, 308(2): L191-L198; incorporated herein by reference) was used to determine ΔPenh, a measure of airways hyperresponsiveness (AHR), in response to methacholine challenge in adult male Brown Norway rats. Results, shown in FIGS. 2A-2G, represent PenH change measured in the ovalbumin allergic asthma assay in rats, with the exception of FIG. 2C, which was measured in mice, for nebulized inhaled drug. Statistics were performed using 2-way ANOVA with Tukey post hoc test for multiple comparisons.
Allergic asthma is defined as a chronic inflammatory disorder of the airways. This disease is characterized by airway inflammation, persistent airways AHR and intermittent, reversible airways obstruction.
Area under the curve of PenH values (PenH-AUC) in response to incremental doses of metacholine were calculated for each testing groups, naïve, OVA treated, and OVA+DRUG treated animals. A reduction in PenH-AUC values of more than 75% of the control values (OVA alone) was annotated as a strong efficacy. […] Additional to this information are provided the relative to R-DOI EC50 values (ratio) of tested compounds in 5-HT2AR heterologous cell-based calcium transient assay. […] FIG. 3 illustrates the non-correlative nature of the therapeutic efficacy of the phenylethylamines class of compounds against inflammatory-mediated allergen-induced AHR and the reported evidences of the dose necessary for psychoactive disturbances experienced with these compounds in humans or the potency and strength of these compounds to the 5-HT2AR in calcium transients assays.
Inhibition of ΔPenh as a function of 2C-iBu concentration was studied by nebulization nose-only administration of 2C-iBu to male adult Brown Norway rats as described above. Area under the curve for each treatment group at a given dose of 2C-iBu for ΔPenh is plotted on the Y-axis versus concentration of 2C-iBu on the X-axis.

[4] = read-out: Half-life (minutes), 1st
[5] = read-out: Half-life (minutes), 2nd
[6] = read-out: Half-life (minutes), Mean
[7] = sc, read-out: ED50 for induction of HTR, based on molar mass
[8] = SC, freebase weight, read-out: ED50 for induction of HTR

SMILES | logD [1] | Clint [2] | microsomal CLint [2] [µL/min/mg] | half-life [2, 4] [min] | half-life [2, 5] [min] | half-life [2, 6] [min] | % Compound Remaining, 1st ([2]; incubation 0 minutes) [%] | % Compound Remaining, 2nd ([2]; incubation 0 minutes) [%] | % Compound Remaining, Mean ([2]; incubation 0 minutes) [%] | % Compound Remaining, 1st ([2]; incubation 15 minutes) [%] | % Compound Remaining, 2nd ([2]; incubation 15 minutes) | % Compound Remaining, Mean ([2]; incubation 15 minutes) [%] | % Compound Remaining, 1st ([2]; incubation 30 minutes) [%] | % Compound Remaining, 2nd ([2]; incubation 30 minutes) [%] | % Compound Remaining, Mean ([2]; incubation 30 minutes) [%] | % Compound Remaining, 1st ([2]; incubation 45 minutes) [%] | % Compound Remaining, 2nd ([2]; incubation 45 minutes) [%] | % Compound Remaining, Mean ([2]; incubation 45 minutes) [%] | % Compound Remaining, 1st ([2]; incubation 60 minutes) [%] | % Compound Remaining, 2nd ([2]; incubation 60 minutes) | further results
COc1cc(CC(C)C)c(OC)cc1CCN [2C-iBu, 2,5-dimethoxy-4-isobutylphenethylamine] | 1.64 | <115.5 | < 116 | > 60 | 1020 | > 60 | 100 | 100 | 100 | 91.0 | {126.7} % | 91 | 113.6 | 114.2 | 114 | 105.3 | 106.5 | 106 | 94.1 | 94.2% | % Compound Remaining, Mean ([2]; incubation 60 minutes): 94%; HTR counts, mean (C57BL/6J mice; 0.3 mg/kg SC): 30.8 counts/30 min; HTR counts, mean (C57BL/6J mice; 1 mg/kg SC): 74.4 ** counts/30 min; HTR counts, mean (C57BL/6J mice; 3 mg/kg SC): 111.1±4.7 counts/30 min and 111.1 ** counts/30 min; HTR counts, mean (C57BL/6J mice; 10 mg/kg SC): 43.4* counts/30 min; Peak HTR counts (C57BL/6J mice; Experiment 3, 3 mg/kg SC): 20.1±3.5 counts/5 min; ED50 (C57BL/6J mice; [7]): 2.17 µmol/kg; ED50 (C57BL/6J mice; [8]): 0.7 mg/kg; fold lower behavioral potency than R-DOI (C57BL/6J mice; ratio of HTR ED50 values (μmol/kg)): ~3 fold; ED50 ([3]; Rattus norvegicus, nebulization nose-only administration, rats (FIG. 4), read-out: ED50, inhibition of ΔPenh (AUC)): 0.0027 mg/kg; Prevention of AHR (ΔPenh/PenH) in response to OVA ([3]; dose not printed (FIG. 2G)): did not result in a decrease in efficacy compared to (R)-DOI
COc1cc(C[C@@H](C)N)c(OC)cc1I [R-DOI] | 1.04 | <115.5 | < 116 | 139 | 188 | > 60 | 100 | 100 | 100 | 90.0 | 101.6% | 96 | 79.6 | 105.3 | 92 | 77.0 | 82.1 | 80 | 74.3 | {91.4} % | % Compound Remaining, Mean ([2]; incubation 60 minutes): 74%; HTR counts, mean (C57BL/6J mice; 0.1 mg/kg SC): 46.5 counts/30 min; HTR counts, mean (C57BL/6J mice; 0.3 mg/kg SC): 78.8 ** counts/30 min; HTR counts, mean (C57BL/6J mice; 1 mg/kg SC): 128.0±13.2 counts/30 min and 128.0 ** counts/30 min; HTR counts, mean (C57BL/6J mice; 3 mg/kg SC): 116.0 ** counts/30 min; Peak HTR counts (C57BL/6J mice; Experiment 3, 1 mg/kg SC): 23.3±3.5 counts/5 min; ED50 (C57BL/6J mice; [7]): 0.63 µmol/kg; ED50 (C57BL/6J mice; [8]): 0.2 mg/kg; ED50 (C57BL/6J mice; administered IP, otherwise identical conditions, read-out: ED50 for induction of HTR): 0.66 µmol/kg; Prevention of AHR (ΔPenh/PenH) in response to OVA ([3]; 1.0 mg/kg, nebulized inhaled drug): full efficacy at preventing AHR
